The source of these data is US12059429B2, “Hornerin: a novel non-VEGF mediated angiogenic protein expressed in both human and mouse angiogenic endothelial cells and human pancreatic cancer cells” (University of Virginia Patent Foundation, priority 2018, dated 2024).

One experiment concerns hornerin transcript. Nature of the experiment: qPCR of hornerin transcript in FACS-sorted CD31+CD45- tumor endothelial cells. It counts as in vivo, mouse. The settings on record: vs Scr siRNA, 20 hours after injection. How it is done: Day 10 tumors were injected with either Scr siRNA or Hrnr siRNA and excised 20 hours later. The tumors were immediately washed in PBS (+Mg/+Ca), minced with scalpels, treated with Collagenase Type II (Worthington Biochemical Corporation, Lakewood, NJ, USA; (2.0 mg/mL) serum-free DMEM, 100 minutes at 37° C.), and filtered through a 40 μm cell strainer. The cell suspension (filtrate) was incubated with the following antibody/dye panel for FACS; anti-CD45 AF488 (1:100; Biolegend, San Diego, CA, USA, 103121, clone 30-F11), anti-CD31 AF647 (1:100; Biolegend, 102415, clone 390), LIVE/DEAD violet stain (1:200; Thermo Fisher). Flow cytometry analysis was completed on the Cyan ADP LX (Beckman Coulter). Compensation and data analysis was completed using FlowJo software (Ashland, OR, USA). […]
RNA was isolated from FACS-sorted CD31^+CD45^− cells according to the manufacturer's protocol (Qiagen mini-prep kit), and concentration and purity were determined using a NanoDrop Spectrophotometer (Thermo Fisher). Complimentary DNA (cDNA) was generated (Qiagen QuantiTect Reverse Transcription Kit) and subjected to pre-amplification (SsoAdvanced PreAmp Supermix, Bio-Rad). […] Melt curve analysis was performed on the hornerin and cyclophilin primer sets prior to data collection and normalized gene expression was determined by the delta delta Ct method.
For orientation: In qPCR the cycle at which signal appears reflects the starting amount.

A further experiment deals with L3.6pl xenografts. Description: Flow cytometry/FACS of tumor cell populations. It counts as in vivo, mouse. The procedure:
Day 10 tumors were injected with either Scr siRNA or Hrnr siRNA and excised 20 hours later. The tumors were immediately washed in PBS (+Mg/+Ca), minced with scalpels, treated with Collagenase Type II (Worthington Biochemical Corporation, Lakewood, NJ, USA; (2.0 mg/mL) serum-free DMEM, 100 minutes at 37° C.), and filtered through a 40 μm cell strainer. The cell suspension (filtrate) was incubated with the following antibody/dye panel for FACS; anti-CD45 AF488 (1:100; Biolegend, San Diego, CA, USA, 103121, clone 30-F11), anti-CD31 AF647 (1:100; Biolegend, 102415, clone 390), LIVE/DEAD violet stain (1:200; Thermo Fisher). Flow cytometry analysis was completed on the Cyan ADP LX (Beckman Coulter). Compensation and data analysis was completed using FlowJo software (Ashland, OR, USA). FACS was completed in the UVA flow cytometry core on the Influx cell sorter (BD Biosciences, Franklin Lakes, NJ, USA).

The test system of a further experiment is human hornerin. Nature of the experiment: In vitro siRNA treatment of human keratinocytes (immunoblot). Format: cell-based. How it is done: For in vitro siRNA-mediated hornerin knockdown, COCA cells and human keratinocytes were plated at a density of 0.1×10^6 cells/well in a six-well cluster plate. The cells were treated the following day with Scr siRNA or Hrnr siRNA (Invitrogen; siRNA sequences identical to those utilized in tumor studies) following an established protocol (see Rachow et al., 2013). Briefly, 100 μL of 10 μM siRNA and 12.5 μL of Lipofectamine 2000 (LF2000; Invitrogen) were added to separate 625 μL OptiMEM (Thermo Fisher Scientific) aliquots. After 5 minutes at RT, the solutions were mixed and incubated for an additional 30 minutes, upon which 5 ml of keratinocyte media were added. The cells were incubated overnight in 3 ml of the siRNA/LF2000/media mixture, replenished the following morning with media containing 2 mM CaCl2) to induce differentiation, and lysed in RIPA buffer 8 hours post-media change. Lysate preparations were subjected to immunoblot using the primary antibodies anti-human hornerin (Abcam; 1:1000), anti-mouse hornerin (Santa Cruz Biotechnology, Dallas, TX, USA, sc164605; 1:200), or anti-beta actin (Cell Signaling; 1:4000), and respective secondary antibodies anti-goat HRP (R&D Systems; 1:10,000), and anti-mouse HRP (R&D Systems; 1:10,000). Uncropped hornerin immunoblots are represented in FIGS. 6A and 6B.
(In general: A western blot detects proteins with antibodies after separation by electrophoresis.)

The next experiment concerns L3.6pl tumors. Nature of the experiment: Ki67 and cleaved caspase 3 immunofluorescence in tumor sections. It counts as in vivo, mouse. As to conditions: day 15 tumor sections. How it is done: (§1) Vessel parameters were measured using RAVE software (Seaman et al., 2011). For detection of proliferation and apoptosis, the sections were incubated with the primary antibodies anti-Ki67 (Abcam, ab15580; 1:200) or anti-cleaved caspase 3 (Cell Signaling, 9661; 1:200), respectively, overnight at 4° C. followed by incubation with anti-rabbit AF594 (Abcam, 150080; 1:200).

In another experiment the test system is tumor vessels. Nature of the experiment: Tumor vessel parameters in L3.6pl tumor sections (CD34, ACTA2, RAVE analysis). It counts as in vivo, mouse. The procedure: Following completion of the treatment schedule, the mice were killed, cardiac perfused, and the tumors were excised and fixed in formalin overnight. The tumors were paraffin embedded and cut into 5 (thin) or 50 μm (thick) sections. Tumor vessel parameters were evaluated in the following number of tumors for each treatment cohort: (Scr siRNA/ctrl., N=10; Hrnr siRNA/ctrl., N=10; Scr siRNA/AV-951, N=4; Hrnr siRNA/AV-951, N=4).
Tumor sections were deparaffinized, rehydrated, heated in antigen retrieval solution (Vector), blocked for 30 minutes in blocking buffer, and incubated with anti-CD34 antibody (Abcam, ab8158, clone MEC14.7; 1:100) in blocking buffer overnight at 4° C. The sections were then incubated with goat anti-rat FITC secondary antibody (Abcam, ab6840; 1:100) in blocking buffer prior to mounting with Prolong Gold Antifade reagent (Invitrogen). Anti-actin, α-smooth muscle Cy3 antibody (Sigma, C6198, clone 1A4; 1:200) was added to the primary antibody solution if assaying for alpha-smooth muscle actin. To compare hornerin expression in vessels and tumor tissue treated with Hrnr siRNA and Scr siRNA, thin paraffin sections were deparaffinized and stained with anti-CD34 and anti-hornerin antibodies described. Images were collected using a Nikon TE 2000-E2 microscope (Nikon Instruments) equipped with a Melles Griot Argon Laser System (Melles Griot, Carlsbad, CA, USA) and a Nikon D-Eclipse C1 confocal attachment and analyzed by Measurement Tool in Image J. To measure the relative hornerin expression in tumor vessels, three vessel segments per image were isolated and their mean intensity and area were measured and recorded. A weighted mean intensity was calculated to correct for differences in selected area. To measure the relative hornerin expression in tumor tissue, the mean intensity from three square sections (75×75 pixel) of tumor tissue per image was measured and recorded.
as §1

Setting [1] is: L3.6pl tumors, RAVE, vs Scr siRNA.
[2] abbreviates: four-group combination experiment, vs control.

As to “5′-GCAUGGAUCUUGUUGCGGUTT-3′ [Hrnr siRNA]”, the “reduction in hornerin transcript” value in the experiment with hornerin transcript was determined as 78%. Moreover, the “proportion of leukocytes (CD45+/CD31- cells)” value with L3.6pl xenografts (FACS of tumor cell suspensions) is listed as “not altered”. In the experiment on L3.6pl xenografts (FACS, vs Scr siRNA), the “proportion of endothelial cells (CD31+/CD45-)” value is “not different”. For the same substance, in the experiment on human hornerin (similar conditions), the “loss of hornerin relative to Scr siRNA” value is recorded as approximately 10%. Further, the “hornerin expression level relative to Scr siRNA” value in the experiment with human hornerin (similar siRNA conditions) is approximately 90%. Besides, the “cleaved caspase 3 levels in tumors relative to control” value in the experiment on L3.6pl tumors was “two-fold increase”. Further, the “increase in ACTA2 coverage of vessels” value in the experiment with tumor vessels (ACTA2-positive pixels / CD34-positive pixels, vs Scr siRNA) is given as 2.3 fold. For the same substance, in the experiment on tumor vessels (CD34-positive vessels per 0.4 mm^2 field, vs Scr siRNA), the “number of vessels per field” value is “not different”. Besides, in the experiment on tumor vessels (setting [1]), the “fractal dimension (tortuosity)” value is on record as “reduced”, the vessel radius result is listed as “overall reduction in vessel radius” and the “vessel volume fraction (VVF)” value is recorded as “reduced”. Moreover, in the experiment on tumor vessels (setting [2]), the “number of vessels per field” value is recorded as “no change in the number of vessels per field” and the vessel radii result is recorded as “smaller radii”.
